Source: US5789382A, “Retro-peptide fibroblast growth factor which blocks FGF receptor” (Georgetown University, priority 1993, dated 1998)
Ends that are not written are not given here.

Experiments:
[1] = system: human SW-13 cells; assay: growth assay with human SW-13 cells (FIG. 2, FIG. 4); assay type: cell-based; conditions: for inhibition of SW-13 cell growth: amounts added as high as 1,000 μg/ml
From the text: FIG. 2 illustrates the results of a growth assay conducted with both a peptide of the present invention (retro-peptide) and the antero-peptide sequence thereof.
FIG. 2 illustrates that both the antero-peptide and the retro-peptide are inhibitory in a growth assay with human SW-13 cells.
FIG. 4 illustrates the difference in effect on SW-13 cell growth between a 10-mer peptide sequence of the formula (SEQ ID NO:6): […]
As may be seen from FIG. 4, the 15-mer sequence has an inhibitive effect on SW-13 cell growth with increasing amount added in μg/ml. This effect becomes almost completely inhibiting in amounts added of about 100 μg/ml and greater.

[2] = system: SW-13 cells; assay: FGF-stimulated colony formation of SW-13 cells (FIG. 3); assay type: cell-based, human
From the text: FIG. 3 illustrates the competitive mechanism of FGF-dependent growth inhibition by a retro-peptide of the present invention.
(§1) FIG. 3 illustrates the competitive mechanism of FGF-dependent growth inhibition by the retro-peptide of the present invention. […] This clearly establishes the specificity of the FGF-receptor inhibition by the present retro-peptide.
In FIG. 3, "Co" refers to a control, while "A" refers to the antero-peptideand "R" refers to the retro-peptide.

[3] = system: breast cancer cells; assay: growth of cell lines growing independently from FGF; assay type: cell-based; conditions: such as breast cancer cells
From the text: as §1

[4] = system: human rhabdomyosarcoma; assay: human rhabdomyosarcoma xenograft in athymic nude mice (FIG. 6); assay type: in vivo
Procedure: Animal studies with human rhabdomyosarcoma growing in athymic nude mice were carried out with the 15 mer peptide. Tumors were allowed to grow subcutaneously and peptide (25 mg/kg of body weight) dissolved in saline was injected for eight days daily intraperitoneally. After three weeks the tumor size in a control group treated only with saline solution was 26.6±6.8 mm^2. The tumor size in the peptide-treated animals was 5.4±1.6 mm^2. […] This is illustrated in FIG. 6.
(§2) Human tumor cells (1 million per mouse) were inoculated in 0.1 ml of saline solution into a mammary fat pad of each mouse. Each group of treatment consisted of 10 animals. One day after the inoculation of tumor cells the animals were treated with a single daily intraperitoneal injection of saline solution (control group) or with the 15-mer retropeptide dissolved in saline solution at a dose of 25 mg per kg body weight (peptide group) or 25 mg per kg body weight of pentosanpolysulfate (pentosan polysulfate group). The treatment with peptide was continued for 8 days due to a currently still limited supply of the peptide. The pentosanpolysulfate treatment was continued throughout the whole observation period.
(§3) The mean ± standard error tumor size is 26.6±6.8 mm^2 (control group) and […] (peptide group). This difference is highly significant (p<0.003) as tested by student's t-test.

[5] = system: human melanoma; assay: growth inhibition of human melanoma; assay type: cell-based; conditions: same concentration as in the SW-13 assay
[6] = system: human rhabdomyosarcoma; assay: growth inhibition of human rhabdomyosarcoma (in vitro); assay type: cell-based; conditions: same concentration as in the SW-13 assay
[7] = system: normal human cells; assay: FGF-stimulated growth of normal human cells; assay type: cell-based
[8] = tolerability in tumor-bearing mice; assay type: in vivo, athymic nude mice; conditions: 25 mg/kg daily i.p. for 8 days
Procedure: as §2, §3

[9] = water solubility; assay type: physicochemical
Procedure: The present retro-peptide is water-soluble and is administered by any route, especially intravenously, subcutaneously, intraperitonially, intramuscularly, orally and rectally. The peptide may be conveniently administered in dextrose 5% saline or in saline solution.

YRSRKYSSWYVALKR [antero-peptide, NH2 --YRSRK--YSSWY--VALKR--COOH, reference compound]
inhibition in growth assay with human SW-13 cells ([1]; FIG. 2): inhibitory | potency in FGF-stimulated SW-13 colony formation relative to the retro-peptide ([2]; antero-peptide versus retro-peptide): significantly less potent | inhibition of cell lines growing independently from FGF [3]: neither of the antero-peptide nor retro-peptide inhibit

pentosanpolysulfate [reference compound]
action on tumor size ([4]; 25 mg/kg daily i.p. throughout the observation period, p<0.05): significant

NH2 --YRSRK--YSSWY-VALKR--CO2 H [15-mer sequence]
amount added at which inhibition of SW-13 cell growth becomes almost complete ([1]; FIG. 4, about 100 μg/ml and greater): about 100 μg/ml

NH2 --YRSRK--YSSWY-CO2 H [10-mer sequence, reference compound]
inhibition of SW-13 cell growth ([1]; FIG. 4): essentially no such inhibition | inhibition of SW-13 cell growth ([1]; FIG. 4, listed as 10-mer): loss of activity

RKLAVYWSSYKRSRY [retro-peptide, NH2 --RKLAV--YWSSY--KRSRY--COOH]
inhibition in growth assay with human SW-13 cells ([1]; FIG. 2): inhibitory | potency in SW-13 growth assay relative to the antero-peptide ([1]; FIG. 2, retro-peptide versus antero-peptide): much more potent | effectiveness against human melanoma [5]: effective at the same concentration | effectiveness against human rhabdomyosarcoma [6]: effective at the same concentration | FGF-stimulated growth of normal human cells [7]: blocks FGF-stimulated growth | dose-response curve of FGF-stimulated colony formation of SW-13 cells ([2]; competitive mechanism): shifted to the right without affecting the maximum achieved | inhibition of cell lines growing independently from FGF [3]: neither of the antero-peptide nor retro-peptide inhibit | mean ± standard error tumor size ([4]; after 24 days of observation, 25 mg/kg daily i.p. for 8 days, saline control 26.6±6.8, p<0.003): 5.0±1.6 mm^2 | tumor size ([4]; after three weeks, 25 mg/kg daily i.p. for eight days, saline control 26.6±6.8, p<0.003): 5.4±1.6 mm^2 | body weight and signs of illness [8]: did not lose weight or show any other signs of major illness | tolerability [8]: tolerated the peptide well | solubility in water [9]: water-soluble
